Each compound was assayed on T1, XoxF5 (assay: PMS-mediated DCPIP reduction at […] nm). Conditions: pH 9.0, 45 mM NH4Cl, ~26°C, 1 mM PMS, 150 μM DCPIP; Ce3+-grown enzyme; read-out: Methylomonas sp. LW13 XoxF5 / Km.
T1 construct: His-tagged, expressed in native host Methylomonas sp; LW13 (wild-type) grown with Ce3+; Ni-NTA purified
Assay type: biochemical

Row | Km [µM] | Structure (SMILES)
1 | 40 ± 37 | CCCCCCO [Hexanol]
2 | 85 ± 44 | CCO [Ethanol]
3 | 96 ± 70 | CCCCO [Butanol]

Row | Structure (SMILES) | Km [µM]
4 | CO [Methanol] | 39 ± 11

Reference: paper PMC6028718, “Lanthanide-Dependent Methanol Dehydrogenases of XoxF4 and XoxF5 Clades Are Differentially Distributed Among Methylotrophic Bacteria and They Reveal Different Biochemical Properties” (Frontiers in Microbiology, 2018)
